Values of other authors in patent US11911505B2, “Liquid formulations of hypoglycaemic sulfonamides” (AMMTEK, priority 2012, dated 2024).
≈ marks a conversion by molar mass, not a printed value.

Conditions: 27° C.

solubility in water [µg/mL] | SMILES
48 (≈ 148 µM) | CC(=O)c1ccc(S(=O)(=O)NC(=O)NC2CCCCC2)cc1 [acetohexamide]
38 (≈ 77.5 µM) | CCC1=C(C)CN(C(=O)NCCc2ccc(S(=O)(=O)NC(=O)N[C@H]3CC[C@H](C)CC3)cc2)C1=O [glimepiride]
2 (≈ 3.79 µM) | COc1ccc2c(c1)C(=O)N(CCc1ccc(S(=O)(=O)NC(=O)NC3CCCCC3)cc1)C(=O)C2(C)C [gliquidone]
